In article PMC4848466, “Insights into the activation mechanism of class I HDAC complexes by inositol phosphates” (Nature Communications, 2016):
pIC50, pKd: −log10 of the molar value. “Also recorded” adds a separate entry of the source. Non-standard residues stand in square brackets, D forms with d. Residues, ends and D or L forms follow the SMILES beside them. *: point of attachment. Asu = N[C@@H](CCCCCC(=O)O)C(=O)O; NHOH = ON*

What was measured:
HDAC1:MTA1 complex = biological target: T1, HDAC1:MTA1 complex (Homo sapiens, UniProt Q13330+Q13547); assay: Activation of HDAC1:MTA1 deacetylase activity by inositol phosphates (BOC-Lys-AMC assay); format: biochemical; conditions: for pKd: read-out: Kdapp (apparent Kd from activation titration)
T1 construct: Full-length HDAC1 and residues 162–354 of MTA1 were cloned into pcDNA3 vectors; residues 162–354 of MTA1 were cloned into pcDNA3 vectors; FLAG tag with TEV protease cleavage site (cleaved yes); made in house; host or cells: HEK293F cells (co-transfection, pcDNA3)
Experimental: (§1) HDAC activity of the protein complex was measured using an HDAC assay with a BOC-Lys-AMC substrate. 50 nM HDAC3:SMRT or 50 nM HDAC1:MTA1 was incubated with 100 μM BOC-Lys-AMC substrate in a final volume of 50 μl buffer A (50 mM Tris pH 7.5, 50 mM NaCl, 5% Glycerol), in a black 96-well plate for 30 min at 37 °C.
(§2) To test the ability of inositol phosphates and derivatives to activate the complex, 50 nM HDAC3:SMRT (which had been stripped of its endogenous co-purified inositol phosphate) or 50 nM HDAC1:MTA1 was incubated with inositol phosphate or analogue for 30 min at 37 °C before the HDAC activity was measured. All measurements were performed in triplicate and data analysed using GraphPad Prism (version 6.0, GraphPad Software, Inc).

HDAC3:SMRT complex [1] = biological target: T2, HDAC3:SMRT complex (Homo sapiens, UniProt O15379+Q9Y618); assay: Activation of HDAC3:SMRT deacetylase activity by inositol phosphates (BOC-Lys-AMC assay); format: biochemical; conditions: for pKd / HDAC3 activation relative to maximal Ins(1,4,5,6)P4-stimulated activity: BOC-Lys-AMC assay; for pKd: one-site binding fit of HDAC activity vs inositol phosphate concentration, read-out: Kdapp (apparent Kd from activation titration); for HDAC3 activation relative to maximal Ins(1,4,5,6)P4-stimulated activity: titration / maximal activation; for HDAC activity as percentage of maximal Ins(1,4,5,6)P4 activity: compound tested at 200 μM
T2 construct: Full-length HDAC3, and residues 350–480 of SMRT were cloned into pcDNA3 vectors; residues 350–480 of SMRT were cloned into pcDNA3 vectors; FLAG tag with TEV protease cleavage site (cleaved yes); made in house; host or cells: HEK293F cells (co-transfection, pcDNA3)
Experimental: (§3) To understand the stereochemical basis underlying the activation of HDAC3 by inositol phosphates we investigated the ability of a range of inositol phosphates and derivatives to enhance the activity of HDAC3 in deacetylase assays. To achieve this we used an assay based on the complex of HDAC3 with an extended SMRT construct which is stable in the absence of inositol phosphate.
as §1, §2

HDAC3:SMRT [2] = biological target: T3, HDAC3:SMRT (Homo sapiens, UniProt O15379+Q9Y618); assay: Fluorescence anisotropy direct binding of 2-FAM-Ins(1,3,4,5,6)P5; conditions: inhibitor bound at the active site
Experimental: When required, assays were performed in the presence of HDAC inhibitor (20 mM final concentration). Plates were mixed by shaking for 1 s, and measurements taken using a Victor X5 plate reader (Perkin Elmer) at room temperature with an excitation wavelength of 480 nm and an emission wavelength of 535 nm. Experiments were performed in triplicate and data were analysed using GraphPad Prism (version 6.0), Kd values were calculated by nonlinear curve fitting using a one-site binding (hyperbola) model (Y=Bmax*X/(Kd+X).
HDAC1:MTA1 [3] = biological target: T4, HDAC1:MTA1 (Homo sapiens, UniProt Q13330+Q13547); assay: Inhibition of HDAC1:MTA1 by peptide-based inhibitor; format: biochemical
T4 construct: Full-length HDAC1 and residues 162–354 of MTA1 were cloned into pcDNA3 vectors; residues 162–354 of MTA1 were cloned into pcDNA3 vectors; FLAG tag with TEV protease cleavage site (cleaved yes); made in house; host or cells: HEK293F cells (co-transfection, pcDNA3)

HDAC3:SMRT [4] = biological target: T3, HDAC3:SMRT; assay: Fluorescence anisotropy displacement of 2-FAM-Ins(1,3,4,5,6)P5; format: binding; set-up: Full-length HDAC3, and residues 350–480 of SMRT were cloned into pcDNA3 vectors; residues 350–480 of SMRT were cloned into pcDNA3 vectors; FLAG tag with TEV protease cleavage site (cleaved yes); made in house; host or cells: HEK293F cells (co-transfection, pcDNA3); conditions: read-out: IC50 displacement of 2-FAM-Ins(1,3,4,5,6)P5; fluorescence anisotropy competition
Experimental: The concentration of protein was determined as that which gave 100% bound in the protein titration experiments. The data were analysed and IC50 values calculated using GraphPad Prism (version 6.0).

HDAC3:SMRT [5] = biological target: T3, HDAC3:SMRT; assay: Michaelis-Menten enzyme kinetics on Caliper EZ Reader with H4K16ac peptide; format: biochemical; set-up: Full-length HDAC3, and residues 350–480 of SMRT were cloned into pcDNA3 vectors; residues 350–480 of SMRT were cloned into pcDNA3 vectors; FLAG tag with TEV protease cleavage site (cleaved yes); made in house; host or cells: HEK293F cells (co-transfection, pcDNA3); conditions: H4 12–18K16ac peptide; in the presence of the inositol phosphate
Excerpt: (§4) To explore further the differences between the two complexes we established a more physiological, real-time kinetic assay using substrates based on the tails of histones H4 and H3. The peptides tested were; H4 12–18(K16ac), H3 23–29(K27ac) and H3 6–12(K9ac). […] HDAC3:SMRT is most catalytically active against H3 23–29(K27ac) (Supplementary Fig. 7), whereas HDAC1:MTA1 is most catalytically active against H4 12–18(K16ac) (Fig. 4d). In both cases an approximate 3-fold greater kcat is observed for the preferred versus non-preferred substrate, in the absence of inositol phosphate. […] The net effect of both inositol phosphates tested was between a two and fivefold increase in catalytic efficiency (kcat/Km) (Fig. 4c,d, Supplementary Fig. 7).
(§5) Michaelis–Menten kinetics were determined using a HDAC assay on the Caliper EZ Reader II system (Caliper Life Sciences, http://www.caliperls.com). To assess the effect of inositol phosphate, 20 nM HDAC3:SMRT or 80 nM HDAC1:MTA1 were pre-mixed with InsP6 before dilution and addition of fluorescein-labelled H4K16Ac substrate. Reactions were carried out in duplicate in 30 μl reaction volumes, performed at room temperature in 50 mM Tris pH 7.5, 50 mM NaCl, 5% glycerol. Data was analysed using GraphPad Prism (version 6.0).

HDAC3:SMRT complex [6] = biological target: T5, HDAC3:SMRT complex (Homo sapiens, UniProt O15379); assay: Activation of HDAC3:SMRT deacetylase activity by inositol phosphates (BOC-Lys-AMC assay); format: biochemical; conditions: BOC-Lys-AMC assay; one-site binding fit of HDAC activity vs inositol phosphate concentration; read-out: Kdapp (apparent Kd from activation titration)
T5 construct: Full-length HDAC3, and residues 350–480 of SMRT were cloned into pcDNA3 vectors; residues 350–480 of SMRT were cloned into pcDNA3 vectors; FLAG tag with TEV protease cleavage site (cleaved yes); made in house; host or cells: HEK293F cells (co-transfection, pcDNA3)
Experimental: as §3, §1, §2

HDAC1:MTA1 [7] = biological target: T4, HDAC1:MTA1; assay: Michaelis-Menten enzyme kinetics on Caliper EZ Reader with H4K16ac peptide; format: biochemical; conditions: H4 12–18K16ac peptide; in the presence of the inositol phosphate
Excerpt: as §4, §5

T1 sequence (Q13547 whole entry, the tested form may be a part): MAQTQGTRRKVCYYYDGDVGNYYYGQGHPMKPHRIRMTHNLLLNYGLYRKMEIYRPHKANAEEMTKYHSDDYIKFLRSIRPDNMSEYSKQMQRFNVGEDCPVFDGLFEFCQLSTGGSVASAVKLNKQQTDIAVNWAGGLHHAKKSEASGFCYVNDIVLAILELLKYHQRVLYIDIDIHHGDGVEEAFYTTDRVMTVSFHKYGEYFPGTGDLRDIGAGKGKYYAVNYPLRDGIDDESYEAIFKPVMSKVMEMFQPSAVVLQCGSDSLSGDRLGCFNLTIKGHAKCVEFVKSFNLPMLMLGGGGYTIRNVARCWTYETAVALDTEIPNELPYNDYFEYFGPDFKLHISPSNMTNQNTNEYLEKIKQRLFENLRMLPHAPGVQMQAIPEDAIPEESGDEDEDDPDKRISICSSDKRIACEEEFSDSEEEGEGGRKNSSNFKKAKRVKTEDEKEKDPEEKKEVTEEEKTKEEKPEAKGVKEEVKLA
T1 sequence (Q13330 162-354): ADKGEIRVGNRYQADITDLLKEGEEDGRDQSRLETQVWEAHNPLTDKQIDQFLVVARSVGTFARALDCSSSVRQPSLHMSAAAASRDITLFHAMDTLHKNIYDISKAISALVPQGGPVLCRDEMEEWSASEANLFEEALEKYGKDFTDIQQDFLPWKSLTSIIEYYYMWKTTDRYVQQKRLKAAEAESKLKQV
T2 sequence (O15379 whole entry, the tested form may be a part): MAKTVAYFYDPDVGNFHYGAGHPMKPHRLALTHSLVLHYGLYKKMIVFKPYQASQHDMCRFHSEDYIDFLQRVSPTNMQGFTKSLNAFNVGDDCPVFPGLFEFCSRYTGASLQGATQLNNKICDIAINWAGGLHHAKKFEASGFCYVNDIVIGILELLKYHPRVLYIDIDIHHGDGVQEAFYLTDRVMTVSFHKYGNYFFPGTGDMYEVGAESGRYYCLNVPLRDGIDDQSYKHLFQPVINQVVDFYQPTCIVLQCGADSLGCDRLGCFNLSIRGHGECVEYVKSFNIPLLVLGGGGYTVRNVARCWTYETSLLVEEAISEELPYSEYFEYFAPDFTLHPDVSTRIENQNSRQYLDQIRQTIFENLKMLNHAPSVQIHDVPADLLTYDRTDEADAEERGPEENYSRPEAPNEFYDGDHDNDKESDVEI
T2 sequence (Q9Y618 350-480): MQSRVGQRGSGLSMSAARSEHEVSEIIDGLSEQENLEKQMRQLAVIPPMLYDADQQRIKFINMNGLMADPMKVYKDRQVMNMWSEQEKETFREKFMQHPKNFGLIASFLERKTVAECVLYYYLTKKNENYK
T3 sequence (O15379 whole entry): as the sequence (O15379 whole entry, the tested form may be a part) above
T3 sequence (Q9Y618 350-480): as the sequence (Q9Y618 350-480) above
T4 sequence (Q13547 whole entry, the tested form may be a part): as the sequence (Q13547 whole entry, the tested form may be a part) above
T4 sequence (Q13330 162-354): as the sequence (Q13330 162-354) above
T5 sequence (O15379 whole entry, the tested form may be a part): as the sequence (O15379 whole entry, the tested form may be a part) above
T5 sequence (Q9Y618 350-480, further chain): as the sequence (Q9Y618 350-480) above

O=P(O)(O)OC1[C@@H](OP(=O)(O)O)[C@H](OP(=O)(O)O)C(O)[C@H](OP(=O)(O)O)[C@H]1OP(=O)(O)O (some centres unmarked)
activation of HDAC1:MTA1 complex (HDAC1:MTA1 complex): can be activated
pKd (HDAC1:MTA1 complex): 5.59
pKd (HDAC3:SMRT complex [1]): 5.30
HDAC3 activation relative to maximal Ins(1,4,5,6)P4-stimulated activity (HDAC3:SMRT complex [1]): same degree as Ins(1,4,5,6)P4
increase in apparent affinity compared with Ins(1,4,5,6)P4 (HDAC3:SMRT complex [1]; ratio of apparent Kd values): twofold

O=C(CP(=O)(O)O)O[C@@H]1[C@@H](OP(=O)(O)O)[C@H](OP(=O)(O)O)[C@H](O)[C@H](OP(=O)(O)O)[C@H]1OP(=O)(O)O [2-OH-5-PA-InsP4]
HDAC activity as percentage of maximal Ins(1,4,5,6)P4 activity (HDAC3:SMRT complex [1]): completely inert

O=P(O)(O)O[C@@H]1[C@@H](OP(=O)(O)OP(=O)(O)O)[C@H](OP(=O)(O)O)[C@@H](OP(=O)(O)O)[C@@H](O)[C@H]1OP(=O)(O)O [5-PP-InsP4]
HDAC activity as percentage of maximal Ins(1,4,5,6)P4 activity (HDAC3:SMRT complex [1]): ~60%

CC(=O)N[C@@H](CCCCN)C(=O)NCC(=O)NCC(=O)N[C@@H](C)C(=O)N[C@@H](CCCCCC(=O)NO)C(=O)N[C@@H](CCCNC(=N)N)C(=O)N[C@@H](Cc1c[nH]cn1)C(N)=O [H4K16Hx] (Ac-KGGA[Asu](NHOH)RH-NH2)
enhancement of the binding of 2-FAM-Ins(1,3,4,5,6)P5 to the allosteric site by inhibitor (HDAC3:SMRT [2]): more modest effect
pIC50 (HDAC1:MTA1 [3]): 6.47

O=P(O)(O)OC1[C@H](O)[C@H](OP(=O)(O)O)C(OP(=O)(O)O)[C@H](OP(=O)(O)O)[C@H]1O (some centres unmarked) [Ins(1,3,4,5)P4]
pKd (HDAC3:SMRT complex [1]): 4.89
HDAC3 activation relative to maximal Ins(1,4,5,6)P4-stimulated activity (HDAC3:SMRT complex [1]): greater than 75%

O=P(O)(O)O[C@@H]1C(O)[C@H](OP(=O)(O)O)[C@@H](OP(=O)(O)O)C(O)[C@H]1OP(=O)(O)O (some centres unmarked) [Ins(1,3,4,6)P4]
pIC50 (HDAC3:SMRT [4]): 5.82
HDAC3 activation relative to maximal Ins(1,4,5,6)P4-stimulated activity (HDAC3:SMRT complex [1]): unable to activate HDAC3; also recorded: do not activate the complex

O=P(O)(O)OC1C(O)C(OP(=O)(O)O)C(OP(=O)(O)O)C(OP(=O)(O)O)C1O (centres unmarked) [Ins(1,3,5,6)P4]
pKd (HDAC3:SMRT complex [1]): 4.52

O=P(O)(O)O[C@@H]1[C@H](O)[C@H](O)[C@@H](OP(=O)(O)O)[C@H](OP(=O)(O)O)[C@H]1O [Ins(1,4,5)P3]
pIC50 (HDAC3:SMRT [4]): 4.72
HDAC3 activation relative to maximal Ins(1,4,5,6)P4-stimulated activity (HDAC3:SMRT complex [1]): completely unable to activate HDAC3; also recorded: completely inert; also recorded: do not activate the complex

O=P(O)(O)O[C@@H]1[C@@H](OP(=O)(O)O)[C@H](OP(=O)(O)O)[C@@H](O)[C@@H](O)[C@H]1OP(=O)(O)O [Ins(1,4,5,6)P4, inositol 1,4,5,6-tetrakisphosphate]
kcat (HDAC3:SMRT [5]): 2.72 s⁻¹
pKd (HDAC1:MTA1 complex): 5.33
pKd (HDAC3:SMRT complex [6]): 5.00
kcat (HDAC1:MTA1 [7]): 0.90 s⁻¹
